{"source": "paper PMC6934184", "about": "“Selective DNA-PKcs inhibition extends the therapeutic index of localized radiotherapy and chemotherapy” (The Journal of Clinical Investigation, 2019)", "key": {"p110α": {"biological_target": "p110α (Homo sapiens, UniProt P42336)", "sequence (P42336 whole entry)": "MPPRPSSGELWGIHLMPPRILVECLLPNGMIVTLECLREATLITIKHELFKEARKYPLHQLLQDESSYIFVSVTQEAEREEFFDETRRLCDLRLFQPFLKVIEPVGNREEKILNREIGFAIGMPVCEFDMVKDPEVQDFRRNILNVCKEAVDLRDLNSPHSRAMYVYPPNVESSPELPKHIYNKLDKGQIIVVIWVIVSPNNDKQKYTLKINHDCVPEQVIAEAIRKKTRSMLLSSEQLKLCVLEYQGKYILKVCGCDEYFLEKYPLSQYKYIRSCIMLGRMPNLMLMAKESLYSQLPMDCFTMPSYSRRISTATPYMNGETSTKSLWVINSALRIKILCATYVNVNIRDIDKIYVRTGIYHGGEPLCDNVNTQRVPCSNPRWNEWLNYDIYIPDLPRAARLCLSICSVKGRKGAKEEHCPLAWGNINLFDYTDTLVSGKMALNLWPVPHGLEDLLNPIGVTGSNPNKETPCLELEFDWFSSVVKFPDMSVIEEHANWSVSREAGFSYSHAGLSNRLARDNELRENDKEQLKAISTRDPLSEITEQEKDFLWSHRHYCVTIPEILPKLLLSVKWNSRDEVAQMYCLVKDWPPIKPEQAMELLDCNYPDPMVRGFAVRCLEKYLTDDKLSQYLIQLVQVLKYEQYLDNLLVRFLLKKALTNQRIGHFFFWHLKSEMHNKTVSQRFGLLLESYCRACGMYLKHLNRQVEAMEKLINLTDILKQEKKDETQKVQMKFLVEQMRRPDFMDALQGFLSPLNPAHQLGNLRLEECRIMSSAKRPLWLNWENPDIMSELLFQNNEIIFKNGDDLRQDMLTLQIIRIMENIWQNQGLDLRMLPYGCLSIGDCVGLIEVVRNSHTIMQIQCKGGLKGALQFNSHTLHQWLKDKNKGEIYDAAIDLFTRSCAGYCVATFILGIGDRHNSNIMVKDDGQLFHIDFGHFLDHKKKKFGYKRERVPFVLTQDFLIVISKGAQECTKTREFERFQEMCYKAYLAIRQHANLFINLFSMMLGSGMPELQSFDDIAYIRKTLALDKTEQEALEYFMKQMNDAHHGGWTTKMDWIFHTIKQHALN", "sequence (P27986 whole entry partner)": "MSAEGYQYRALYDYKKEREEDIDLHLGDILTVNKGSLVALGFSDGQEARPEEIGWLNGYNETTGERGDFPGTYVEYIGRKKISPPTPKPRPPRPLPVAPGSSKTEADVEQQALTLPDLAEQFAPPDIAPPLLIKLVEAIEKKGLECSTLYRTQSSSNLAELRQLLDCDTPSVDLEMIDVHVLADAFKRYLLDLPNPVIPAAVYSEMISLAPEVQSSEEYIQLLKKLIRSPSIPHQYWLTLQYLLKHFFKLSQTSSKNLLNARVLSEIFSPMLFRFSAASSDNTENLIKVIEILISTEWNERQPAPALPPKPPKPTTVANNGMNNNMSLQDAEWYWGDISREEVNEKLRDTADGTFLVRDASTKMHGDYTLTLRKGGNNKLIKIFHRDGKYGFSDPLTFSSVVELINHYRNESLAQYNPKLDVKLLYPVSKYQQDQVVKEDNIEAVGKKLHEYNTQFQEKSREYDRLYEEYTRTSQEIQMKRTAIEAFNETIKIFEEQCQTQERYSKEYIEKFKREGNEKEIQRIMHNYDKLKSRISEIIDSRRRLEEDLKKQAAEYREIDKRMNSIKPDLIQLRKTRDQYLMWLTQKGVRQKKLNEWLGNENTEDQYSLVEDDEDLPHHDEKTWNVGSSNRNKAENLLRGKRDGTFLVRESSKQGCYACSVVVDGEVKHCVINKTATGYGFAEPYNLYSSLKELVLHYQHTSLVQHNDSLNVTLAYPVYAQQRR", "assay": "SelectScreen Profiling IC50", "assay_type": "biochemical", "method": "The in vitro kinase selectivity of NU5455 was determined using the SelectScreen Broad Assay Panel (Thermo Fisher Scientific) involving activity and binding assays (Supplemental Table 1). […] Class IA PI3Ks were measured using the p85α subunit.\nPI3K Kinase NU5455 IC (nM) Fold selectivity\nSupplemental Table 2. NU5455 potency and selectivity across the PI3K kinase family.\nµM NU5455 for DNA-PK versus other PIKK and PI3K family members was assessed by SelectScreen Profiling (Life Technologies). The\nATP concentration was the Kmapp except for * where the ATP concentration was 10 μM (mean ± SEM, n=4-7)."}, "[1]": {"system": "A549 subcutaneous xenografts", "assay": "subcutaneous A549 xenograft with localized radiation", "assay_type": "in vivo, mouse", "conditions": "NU5455 30 mg/kg oral 30 min before 10 Gy", "method": "Subcutaneous non–small cell lung cancer xenografts were generated in CD-1 nude or BALB/c nude mice using A549 and Calu-6 cells, respectively, as previously described ([53]). When tumors reached 100 mm^3, mice were randomized into 4 groups (n = 7–9 per group) to receive (a) vehicle (orally) 30 minutes before mock radiation, (b) NU5455 (30 mg/kg orally) 30 minutes before mock radiation, (c) targeted tumor radiation at a single dose of 3.3 or 10 Gy, or (d) NU5455 (30 mg/kg orally) 30 minutes before 3.3 Gy or 10 Gy targeted tumor radiation. For targeted irradiation of subcutaneous tumors, anesthetized mice were restrained in a lead-shielded container with only the tumor exposed, and x-ray radiation applied using an RS320 irradiation system (Gulmay Medical) at a dose rate of 1.82 Gy/min. […]\nNSCLC subcutaneous xenografts were generated as previously described ( 53). […] Mouse weights and tumor volumes (1/2 x length x width x depth) were measured three times a week.\nTargeted radiotherapy in subcutaneous and orthotopic NSCLC xenograft models When subcutaneous xenografts reached 100 mm3, mice were randomized into four groups (n = 7 - 11/group): (i) N-Methyl-2-pyrrolidone (NMP): 30% Encapsin : PEG400 (1:6:3 v/v/v) vehicle p.o. 30 minutes prior to mock radiation. […] The remaining mice were monitored for tumor growth until the sizes of tumo rs reached 400 mm 3 or up to 38 days after initiation of […]"}}, "data": [{"smiles": "CN(C(=O)CN1CCOCC1)c1ccc2sc3c(-c4cccc5c(=O)cc(N6CC7CCC(C6)O7)oc45)cccc3c2c1", "note": "[NU5455]", "values": [{"measurement": "IC50", "setting": "p110α; cell-free, ATP Km app, p85α subunit, mean ± SEM, read-out: NU5455 IC50", "value": "1.87 ± 0.216", "unit": "µM"}, {"measurement": "Fold selectivity for DNA-PK", "setting": "p110α; versus p110α (PI3Kα)", "value": 228, "unit": "fold"}, {"measurement": "antitumor activity with radiation", "setting": "[1]", "value": "enhanced the antitumor activity"}]}]}
